Measurements reported in PubChem BioAssay (NCI).
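Interpolation was linear, between the two tested concentrations surrounding the appropriate level; five concentrations were tested over 48 hours in 96-well plates. The concentration for full growth arrest is given as TGI.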

Experiments:
Assay in all cases: growth of human tumour cells (NCI), 48 h
786-0 renal = system: 786-0 renal
A498 renal = system: A498 renal
ACHN renal = system: ACHN renal
CAKI-1 renal = system: CAKI-1 renal
CCRF-CEM leukemia = system: CCRF-CEM leukemia
COLO 205 colon = system: COLO 205 colon
DLD-1 colon = system: DLD-1 colon
DMS 114 small cell lung = system: DMS 114 small cell lung
DMS 273 small cell lung = system: DMS 273 small cell lung
HCC-2998 colon = system: HCC-2998 colon
HCT-116 colon = system: HCT-116 colon
HL-60(TB) leukemia = system: HL-60(TB) leukemia
HOP-62 NSCLC = system: HOP-62 NSCLC
HOP-92 NSCLC = system: HOP-92 NSCLC
IGROV1 ovarian = system: IGROV1 ovarian
K-562 leukemia = system: K-562 leukemia
LXFL 529 NSCLC = system: LXFL 529 NSCLC
M14 melanoma = system: M14 melanoma
M19-MEL melanoma = system: M19-MEL melanoma
MALME-3M melanoma = system: MALME-3M melanoma
MOLT-4 leukemia = system: MOLT-4 leukemia
NCI-H226 lung = system: NCI-H226 lung
NCI-H23 lung = system: NCI-H23 lung
NCI-H522 lung = system: NCI-H522 lung
OVCAR-4 ovarian = system: OVCAR-4 ovarian
RXF-631 renal = system: RXF-631 renal
SF-268 CNS = system: SF-268 CNS
SF-539 CNS = system: SF-539 CNS
SK-MEL-2 melanoma = system: SK-MEL-2 melanoma
SK-MEL-28 melanoma = system: SK-MEL-28 melanoma
SK-OV-3 ovarian = system: SK-OV-3 ovarian
SN12C renal = system: SN12C renal
SNB-75 CNS = system: SNB-75 CNS
SNB-78 CNS = system: SNB-78 CNS
SR leukemia = system: SR leukemia
UACC-62 melanoma = system: UACC-62 melanoma
UO-31 renal = system: UO-31 renal
XF 498 CNS = system: XF 498 CNS
A549 NSCLC = system: A549 NSCLC
EKVX NSCLC = system: EKVX NSCLC
HCT-15 colon = system: HCT-15 colon
HOP-18 NSCLC = system: HOP-18 NSCLC
HT29 colon = system: HT29 colon
KM12 colon = system: KM12 colon
KM20L2 colon = system: KM20L2 colon
LOX IMVI melanoma = system: LOX IMVI melanoma
NCI-H460 lung = system: NCI-H460 lung
OVCAR-3 ovarian = system: OVCAR-3 ovarian
OVCAR-5 ovarian = system: OVCAR-5 ovarian
OVCAR-8 ovarian = system: OVCAR-8 ovarian
RPMI-8226 leukemia = system: RPMI-8226 leukemia
RXF 393 renal = system: RXF 393 renal
SF-295 CNS = system: SF-295 CNS
SK-MEL-5 melanoma = system: SK-MEL-5 melanoma
SNB-19 CNS = system: SNB-19 CNS
SW-620 colon = system: SW-620 colon
TK-10 renal = system: TK-10 renal
U251 CNS = system: U251 CNS
UACC-257 melanoma = system: UACC-257 melanoma

Cc1ccc(NC(=O)c2c(C)nc(=O)n3c2N(/N=C/c2ccc(Cl)cc2)CC3)cc1
TGI (786-0 renal): 33.8 µM | TGI (A498 renal): 33.1 µM | TGI (ACHN renal): 33.8 µM | TGI (CAKI-1 renal): 32.1 µM | TGI (CCRF-CEM leukemia): > 100 µM | TGI (COLO 205 colon): 54.8 µM | TGI (DLD-1 colon): 30.7 µM | TGI (DMS 114 small cell lung): 55.1 µM | TGI (DMS 273 small cell lung): 43.9 µM | TGI (HCC-2998 colon): 32.3 µM | TGI (HCT-116 colon): 26.4 µM | TGI (HL-60(TB) leukemia): 48.7 µM | TGI (HOP-62 NSCLC): 33.1 µM | TGI (HOP-92 NSCLC): 36.6 µM | TGI (IGROV1 ovarian): 36.2 µM | TGI (K-562 leukemia): > 100 µM | TGI (LXFL 529 NSCLC): 31.6 µM | TGI (M14 melanoma): 31.5 µM | TGI (M19-MEL melanoma): 37 µM | TGI (MALME-3M melanoma): 40.1 µM | TGI (MOLT-4 leukemia): 82 µM | TGI (NCI-H226 lung): 33.3 µM | TGI (NCI-H23 lung): 29.2 µM | TGI (NCI-H522 lung): 24 µM | TGI (OVCAR-4 ovarian): 32 µM | TGI (RXF-631 renal): 30.6 µM | TGI (SF-268 CNS): 29.2 µM | TGI (SF-539 CNS): 25 µM | TGI (SK-MEL-2 melanoma): 34.7 µM | TGI (SK-MEL-28 melanoma): 31.2 µM | TGI (SK-OV-3 ovarian): 39.7 µM | TGI (SN12C renal): 30.6 µM | TGI (SNB-75 CNS): 34.1 µM | TGI (SNB-78 CNS): 40.5 µM | TGI (SR leukemia): > 100 µM | TGI (UACC-62 melanoma): 28.2 µM | TGI (UO-31 renal): 24 µM | TGI (XF 498 CNS): 34.1 µM

CC1=Nc2ccccc2C1C(Cc1ccccc1N)c1c(C)[nH]c2ccccc12 (configuration not stated)
TGI (786-0 renal): 28.6 µM | TGI (A498 renal): 29.8 µM | TGI (A549 NSCLC): 32.8 µM | TGI (ACHN renal): 30.1 µM | TGI (CCRF-CEM leukemia): 47.2 µM | TGI (COLO 205 colon): 30.2 µM | TGI (DLD-1 colon): 35.4 µM | TGI (DMS 114 small cell lung): 33.5 µM | TGI (EKVX NSCLC): 37.7 µM | TGI (HCC-2998 colon): 30.2 µM | TGI (HCT-116 colon): 30.6 µM | TGI (HCT-15 colon): 51 µM | TGI (HL-60(TB) leukemia): 35.7 µM | TGI (HOP-18 NSCLC): 24.8 µM | TGI (HOP-62 NSCLC): 27.9 µM | TGI (HOP-92 NSCLC): 26.1 µM | TGI (HT29 colon): 33.1 µM | TGI (IGROV1 ovarian): 36 µM | TGI (K-562 leukemia): 43.2 µM | TGI (KM12 colon): 31.7 µM | TGI (KM20L2 colon): 28.2 µM | TGI (LOX IMVI melanoma): 28.2 µM | TGI (LXFL 529 NSCLC): 32.2 µM | TGI (M14 melanoma): 28.3 µM | TGI (M19-MEL melanoma): 33.1 µM | TGI (MALME-3M melanoma): 31 µM | TGI (MOLT-4 leukemia): 53.4 µM | TGI (NCI-H226 lung): 32.9 µM | TGI (NCI-H23 lung): 33.6 µM | TGI (NCI-H460 lung): 35.2 µM | TGI (NCI-H522 lung): 31.6 µM | TGI (OVCAR-3 ovarian): 31.4 µM | TGI (OVCAR-5 ovarian): 31.6 µM | TGI (OVCAR-8 ovarian): 32.6 µM | TGI (RPMI-8226 leukemia): 52.4 µM | TGI (RXF 393 renal): 35.1 µM | TGI (RXF-631 renal): 44.4 µM | TGI (SF-268 CNS): 21.5 µM | TGI (SF-295 CNS): 25.8 µM | TGI (SF-539 CNS): 31.5 µM | TGI (SK-MEL-2 melanoma): 23 µM | TGI (SK-MEL-28 melanoma): 32.8 µM | TGI (SK-MEL-5 melanoma): 27.8 µM | TGI (SK-OV-3 ovarian): 53.3 µM | TGI (SN12C renal): 33.6 µM | TGI (SNB-19 CNS): 41.6 µM | TGI (SNB-75 CNS): 34.8 µM | TGI (SR leukemia): 50.3 µM | TGI (SW-620 colon): 34.7 µM | TGI (TK-10 renal): 30.8 µM | TGI (U251 CNS): 32.4 µM | TGI (UACC-257 melanoma): 32.4 µM | TGI (UACC-62 melanoma): 26.3 µM | TGI (UO-31 renal): 31.8 µM | TGI (XF 498 CNS): 32.5 µM

O=C(/C=C/c1ccc(O)cc1)OC[C@@H](O)COC1OC(CO)C(O)C(O)C1O (some centres not stated)
TGI (A498 renal): > 100 µM | TGI (A549 NSCLC): > 100 µM | TGI (ACHN renal): > 100 µM | TGI (CCRF-CEM leukemia): > 100 µM | TGI (DMS 114 small cell lung): > 100 µM | TGI (EKVX NSCLC): > 100 µM | TGI (HCT-116 colon): > 100 µM | TGI (HL-60(TB) leukemia): > 100 µM | TGI (HOP-62 NSCLC): > 100 µM | TGI (HOP-92 NSCLC): > 100 µM | TGI (HT29 colon): > 100 µM | TGI (IGROV1 ovarian): > 100 µM | TGI (K-562 leukemia): > 100 µM | TGI (KM12 colon): > 100 µM | TGI (M14 melanoma): > 100 µM | TGI (M19-MEL melanoma): > 100 µM | TGI (MOLT-4 leukemia): > 100 µM | TGI (NCI-H226 lung): > 100 µM | TGI (NCI-H23 lung): > 100 µM | TGI (NCI-H460 lung): > 100 µM | TGI (NCI-H522 lung): > 100 µM | TGI (OVCAR-5 ovarian): > 100 µM | TGI (OVCAR-8 ovarian): > 100 µM | TGI (RXF 393 renal): > 100 µM | TGI (RXF-631 renal): > 100 µM | TGI (SF-295 CNS): > 100 µM | TGI (SK-MEL-28 melanoma): > 100 µM | TGI (SK-OV-3 ovarian): > 100 µM | TGI (SNB-19 CNS): > 100 µM | TGI (SNB-78 CNS): > 100 µM | TGI (SR leukemia): > 100 µM | TGI (TK-10 renal): > 100 µM | TGI (U251 CNS): > 100 µM | TGI (UACC-257 melanoma): > 100 µM | TGI (UO-31 renal): > 100 µM

O=[N+]([O-])c1nccn1CC(O)c1ccc(F)cc1 (configuration not stated)
TGI (786-0 renal): > 100 µM | TGI (A498 renal): > 100 µM | TGI (A549 NSCLC): > 100 µM | TGI (ACHN renal): > 100 µM | TGI (CAKI-1 renal): > 100 µM | TGI (CCRF-CEM leukemia): > 100 µM | TGI (COLO 205 colon): > 100 µM | TGI (DMS 114 small cell lung): > 100 µM | TGI (DMS 273 small cell lung): > 100 µM | TGI (EKVX NSCLC): > 100 µM | TGI (HCT-15 colon): > 100 µM | TGI (HL-60(TB) leukemia): > 100 µM | TGI (HOP-18 NSCLC): > 100 µM | TGI (HOP-62 NSCLC): > 100 µM | TGI (HOP-92 NSCLC): > 100 µM | TGI (HT29 colon): > 100 µM | TGI (IGROV1 ovarian): > 100 µM | TGI (K-562 leukemia): > 100 µM | TGI (KM12 colon): > 100 µM | TGI (KM20L2 colon): > 100 µM | TGI (LOX IMVI melanoma): > 100 µM | TGI (LXFL 529 NSCLC): > 100 µM | TGI (M14 melanoma): > 100 µM | TGI (M19-MEL melanoma): > 100 µM | TGI (MALME-3M melanoma): > 100 µM | TGI (MOLT-4 leukemia): > 100 µM | TGI (NCI-H226 lung): > 100 µM | TGI (NCI-H23 lung): > 100 µM | TGI (NCI-H460 lung): > 100 µM | TGI (NCI-H522 lung): > 100 µM | TGI (OVCAR-3 ovarian): > 100 µM | TGI (OVCAR-4 ovarian): > 100 µM | TGI (OVCAR-5 ovarian): > 100 µM | TGI (OVCAR-8 ovarian): > 100 µM | TGI (RPMI-8226 leukemia): > 100 µM | TGI (RXF 393 renal): > 100 µM | TGI (RXF-631 renal): > 100 µM | TGI (SF-268 CNS): > 100 µM | TGI (SF-295 CNS): > 100 µM | TGI (SF-539 CNS): > 100 µM | TGI (SK-MEL-2 melanoma): > 100 µM | TGI (SK-MEL-28 melanoma): > 100 µM | TGI (SK-MEL-5 melanoma): > 100 µM | TGI (SK-OV-3 ovarian): > 100 µM | TGI (SN12C renal): > 100 µM | TGI (SNB-19 CNS): > 100 µM | TGI (SNB-75 CNS): > 100 µM | TGI (SW-620 colon): > 100 µM | TGI (TK-10 renal): > 100 µM | TGI (U251 CNS): > 100 µM | TGI (UACC-257 melanoma): > 100 µM | TGI (UACC-62 melanoma): > 100 µM | TGI (UO-31 renal): > 100 µM | TGI (XF 498 CNS): > 100 µM
